Assay results from ChEMBL document CHEMBL6087456 (J Med Chem, 2025).
pEC50, pIC50: −log10 of the molar value. Converted amounts (≈) assume the structure as drawn.

Key:
[1] = Oral absorption in overnight-fasted male Sprague-Dawley rat at 3 mg/kg measured upto 72 hrs by LCMS analysis; assay type: ADME, organism-based; details: in vivo
[2] = Ratio of drug concentration in Sprague-Dawley rat brain to plasma at 1 uM measured for 5 to 60 mins by LCMS analysis; assay type: ADME, cell-free; details: time 5-60 min
Albumin = Albumin (Homo sapiens, UniProt P02768); experiment: Protein binding to albumin (unknown origin) in ALBUMAX medium; assay type: ADME; details: read-out: PB (converted)
Plasmodium falciparum [3] = experiment: Antiparasitic activity against asexual blood stage Plasmodium falciparum 3D7 incubated for 72 hrs by SYBR Green assay; assay type: functional, organism-based; details: 3D7, 72 h
[4] = Metabolic stability in human liver microsomes assessed as intrinsic clearance at 0.5 uM incubated for 60 mins in presence of NADPH by tandem quadrupole-Time of Flight MS; assay type: ADME, Microsome; details: 1 h
[5] = Kinetic solubility of compound at pH 6.5 measured after 30 mins by nephelometry; assay type: physicochemical; details: buffer; for solubility kinetic at 0.5 h: pH 6.5, read-out: Kinetic_solubility; for Kinetic_solubility: pH 6.5, 0.5 h
[6] = biological target: Dihydroorotate dehydrogenase (quinone), mitochondrial (Homo sapiens, UniProt Q02127); experiment: Inhibition of C-terminal His6-tagged recombinant human DHODH (29 to 395 residues) N-terminally truncated soluble domain extracted from Escherichia coli phage resistant BL21-DE3 using CoQD/DHA/DCIP as substrates
[7] = Volume of distribution at steady state in overnight-fasted male Sprague-Dawley rat at 3 mg/kg, po or 1 mg/kg, iv measured upto 72 hrs by LCMS analysis; assay type: ADME, organism-based; details: in vivo
[8] = biological target: T1, Dihydroorotate dehydrogenase (quinone), mitochondrial (Plasmodium falciparum (isolate 3D7), UniProt Q08210); experiment: Inhibition of N-terminal His6-tagged recombinant Plasmodium falciparum DHODH (158 to 569 residues) N-terminally truncated soluble domain extracted from Escherichia coli phage resistant BL21-DE3 using CoQD/DHA/DCIP as substrates
T1 sequence (Q08210 whole entry): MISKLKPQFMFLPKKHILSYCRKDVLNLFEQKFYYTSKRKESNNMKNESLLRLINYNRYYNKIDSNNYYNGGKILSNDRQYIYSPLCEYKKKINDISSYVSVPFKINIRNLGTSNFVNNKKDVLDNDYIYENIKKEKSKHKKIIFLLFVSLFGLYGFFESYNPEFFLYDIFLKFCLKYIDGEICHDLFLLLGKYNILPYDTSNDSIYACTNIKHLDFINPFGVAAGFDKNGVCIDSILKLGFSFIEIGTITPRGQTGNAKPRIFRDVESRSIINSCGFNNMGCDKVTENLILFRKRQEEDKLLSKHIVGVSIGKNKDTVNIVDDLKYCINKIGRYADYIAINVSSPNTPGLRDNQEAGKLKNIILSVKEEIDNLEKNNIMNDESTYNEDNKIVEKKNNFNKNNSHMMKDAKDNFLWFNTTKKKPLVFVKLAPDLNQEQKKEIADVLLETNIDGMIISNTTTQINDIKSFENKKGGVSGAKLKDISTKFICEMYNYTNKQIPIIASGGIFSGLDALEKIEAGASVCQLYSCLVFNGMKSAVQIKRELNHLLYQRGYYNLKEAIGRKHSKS

[9] = Plasma protein binding in human measured for 6 hrs by rapid equilibrium dialysis; assay type: ADME, cell-free
[10] = Protein binding in human hepatocytes; assay type: ADME, cell-based, Hepatocyte; details: read-out: PB (converted)
[11] = Half life in overnight-fasted male Sprague-Dawley rat at 3 mg/kg, po or 1 mg/kg, iv measured upto 72 hrs by LCMS analysis; assay type: ADME, organism-based; details: in vivo
[12] = Plasma protein binding in rat measured for 6 hrs by rapid equilibrium dialysis; assay type: ADME, cell-free
[13] = Partition coefficient, log D of compound at pH 7.4 measured after 24 hrs by LCMS analysis; assay type: physicochemical; details: octanol/water, pH 7.4, 24 h
[14] = Drug excretion in Sprague-Dawley rat urine at 1 mg/kg, iv; assay type: ADME, organism-based; details: read-out: Drug excretion
Cytochrome P450 3A4 = Cytochrome P450 3A4 (Homo sapiens, UniProt P08684); experiment: Inhibition of CYP3A4 in human liver microsomes; assay type: ADME, Microsome
[15] = Permeability across apical to basal side in human Caco-2 cells; assay type: ADME, cell-based
[16] = Oral bioavailability in overnight-fasted male Sprague-Dawley rat at 3 mg/kg measured upto 72 hrs by LCMS analysis; assay type: ADME, organism-based; details: in vivo
Cytochrome P450 2B6 = biological target: T2, Cytochrome P450 2B6 (Homo sapiens, UniProt P20813); experiment: Inhibition of CYP2B6 in human liver microsomes; assay type: ADME, Microsome
T2 sequence (P20813 whole entry): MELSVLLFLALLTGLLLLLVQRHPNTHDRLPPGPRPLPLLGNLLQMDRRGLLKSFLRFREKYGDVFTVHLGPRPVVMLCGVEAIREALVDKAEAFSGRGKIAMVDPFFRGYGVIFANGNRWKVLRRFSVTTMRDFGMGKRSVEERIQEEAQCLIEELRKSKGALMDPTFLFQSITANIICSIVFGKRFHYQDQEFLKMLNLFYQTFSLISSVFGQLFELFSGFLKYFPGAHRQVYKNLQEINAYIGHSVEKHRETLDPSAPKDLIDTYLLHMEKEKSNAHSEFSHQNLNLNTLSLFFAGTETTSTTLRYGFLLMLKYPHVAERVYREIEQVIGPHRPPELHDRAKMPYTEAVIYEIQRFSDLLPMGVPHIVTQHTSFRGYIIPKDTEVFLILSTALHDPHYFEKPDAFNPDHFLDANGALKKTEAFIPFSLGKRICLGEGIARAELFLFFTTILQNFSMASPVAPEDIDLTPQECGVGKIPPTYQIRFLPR

Cytochrome P450 2D6 = Cytochrome P450 2D6 (Homo sapiens, UniProt P10635); experiment: Inhibition of CYP2D6 in human liver microsomes; assay type: ADME, Microsome
Cytochrome P450 1A2 = biological target: T3, Cytochrome P450 1A2 (Homo sapiens, UniProt P05177); experiment: Inhibition of CYP1A2 in human liver microsomes; assay type: ADME, Microsome
T3 sequence (P05177 whole entry): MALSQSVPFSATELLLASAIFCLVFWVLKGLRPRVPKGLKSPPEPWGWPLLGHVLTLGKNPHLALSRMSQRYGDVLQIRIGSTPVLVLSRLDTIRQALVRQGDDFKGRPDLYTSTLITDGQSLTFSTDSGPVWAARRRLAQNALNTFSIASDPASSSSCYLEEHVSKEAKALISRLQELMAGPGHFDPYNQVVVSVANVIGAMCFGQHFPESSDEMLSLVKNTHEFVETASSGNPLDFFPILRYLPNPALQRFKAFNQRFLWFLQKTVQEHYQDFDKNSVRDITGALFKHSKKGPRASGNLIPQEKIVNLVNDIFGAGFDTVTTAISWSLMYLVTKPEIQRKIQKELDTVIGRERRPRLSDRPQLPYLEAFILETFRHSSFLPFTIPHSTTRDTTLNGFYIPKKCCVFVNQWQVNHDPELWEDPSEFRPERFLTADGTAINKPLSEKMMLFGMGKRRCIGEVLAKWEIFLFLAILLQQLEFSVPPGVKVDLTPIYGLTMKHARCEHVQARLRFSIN

[17] = Cytotoxicity against human HepG2 cells by Cell Titer Glo assay; assay type: toxicity, cell-based
[18] = Cytotoxicity against human Jurkat cells by Cell Titer Glo assay; assay type: toxicity, cell-based
[19] = Selectivity index, ratio of IC50 for N-terminal His6-tagged recombinant Plasmodium falciparum DHODH (158 to 569 residues) N-terminally truncated soluble domain extracted from Escherichia coli phage resistant BL21-DE3 to IC50 for C-terminal His6-tagged recombinant Plasmodium vivax DHODH (158 to …
Plasmodium falciparum [20] = experiment: Antiparasitic activity against Plasmodium falciparum 3D7 assessed as parasitic reduction ratio at 10 times EC50 pretreated for 120 hrs followed by compound removal and replacement of media without compound measured after 28 days by cell killing assay; assay type: functional

Sequence of Albumin (P02768 whole entry): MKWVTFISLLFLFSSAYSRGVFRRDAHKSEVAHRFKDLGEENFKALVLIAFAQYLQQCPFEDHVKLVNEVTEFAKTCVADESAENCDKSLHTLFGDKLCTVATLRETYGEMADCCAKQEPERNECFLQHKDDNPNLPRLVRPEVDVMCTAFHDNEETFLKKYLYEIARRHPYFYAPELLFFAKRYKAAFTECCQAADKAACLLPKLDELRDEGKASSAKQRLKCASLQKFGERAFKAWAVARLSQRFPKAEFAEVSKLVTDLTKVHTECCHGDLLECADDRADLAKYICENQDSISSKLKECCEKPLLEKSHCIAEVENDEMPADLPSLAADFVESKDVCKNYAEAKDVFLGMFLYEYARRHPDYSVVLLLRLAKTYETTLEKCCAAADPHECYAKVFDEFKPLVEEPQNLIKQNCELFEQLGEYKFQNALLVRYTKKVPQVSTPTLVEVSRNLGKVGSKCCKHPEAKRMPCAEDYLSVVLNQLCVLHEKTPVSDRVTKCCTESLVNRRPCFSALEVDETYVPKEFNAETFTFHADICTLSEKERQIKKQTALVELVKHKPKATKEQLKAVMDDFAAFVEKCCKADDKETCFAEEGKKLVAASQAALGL
Sequence of Dihydroorotate dehydrogenase (quinone), mitochondrial (Homo sapiens, UniProt Q02127) (Q02127 whole entry, the tested form may be a part): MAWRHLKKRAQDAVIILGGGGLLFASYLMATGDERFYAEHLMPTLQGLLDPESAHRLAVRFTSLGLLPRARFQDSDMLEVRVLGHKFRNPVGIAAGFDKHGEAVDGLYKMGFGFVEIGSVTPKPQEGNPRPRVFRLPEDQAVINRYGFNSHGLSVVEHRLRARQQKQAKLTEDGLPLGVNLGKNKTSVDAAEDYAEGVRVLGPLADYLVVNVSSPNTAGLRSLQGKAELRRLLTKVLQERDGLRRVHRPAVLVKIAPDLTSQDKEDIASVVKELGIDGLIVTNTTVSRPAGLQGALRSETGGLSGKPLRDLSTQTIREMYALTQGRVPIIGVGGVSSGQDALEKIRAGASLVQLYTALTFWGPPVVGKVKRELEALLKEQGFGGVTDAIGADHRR
Sequence of Cytochrome P450 3A4 (P08684 whole entry): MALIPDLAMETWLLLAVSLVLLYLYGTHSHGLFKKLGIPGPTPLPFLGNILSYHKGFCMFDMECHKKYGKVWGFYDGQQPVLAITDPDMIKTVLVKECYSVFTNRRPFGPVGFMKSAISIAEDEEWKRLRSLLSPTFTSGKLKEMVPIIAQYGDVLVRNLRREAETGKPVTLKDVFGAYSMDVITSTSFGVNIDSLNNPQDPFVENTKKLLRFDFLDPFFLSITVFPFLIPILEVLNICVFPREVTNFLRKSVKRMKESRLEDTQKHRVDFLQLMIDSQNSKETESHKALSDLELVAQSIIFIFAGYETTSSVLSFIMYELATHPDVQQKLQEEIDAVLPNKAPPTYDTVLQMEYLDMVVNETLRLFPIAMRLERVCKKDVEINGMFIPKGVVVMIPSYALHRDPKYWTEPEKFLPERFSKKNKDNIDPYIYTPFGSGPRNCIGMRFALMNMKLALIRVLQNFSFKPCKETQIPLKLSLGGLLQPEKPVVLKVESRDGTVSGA
Sequence of Cytochrome P450 2D6 (P10635 whole entry): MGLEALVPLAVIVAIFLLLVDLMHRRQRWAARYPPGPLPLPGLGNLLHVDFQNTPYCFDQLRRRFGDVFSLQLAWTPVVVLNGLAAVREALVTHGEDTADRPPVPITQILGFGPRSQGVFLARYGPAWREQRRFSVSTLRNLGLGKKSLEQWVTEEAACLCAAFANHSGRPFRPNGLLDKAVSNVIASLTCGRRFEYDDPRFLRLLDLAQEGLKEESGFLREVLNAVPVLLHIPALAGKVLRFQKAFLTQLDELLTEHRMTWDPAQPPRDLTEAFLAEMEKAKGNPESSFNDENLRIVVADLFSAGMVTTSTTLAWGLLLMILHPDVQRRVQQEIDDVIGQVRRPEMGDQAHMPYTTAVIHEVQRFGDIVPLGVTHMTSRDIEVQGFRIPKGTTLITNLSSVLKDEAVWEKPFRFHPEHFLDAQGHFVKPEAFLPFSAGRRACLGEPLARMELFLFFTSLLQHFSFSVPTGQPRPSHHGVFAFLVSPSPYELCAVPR

CCn1cc(Cl)c2c(Cc3ccc(C(F)(F)F)nc3)n(C)nc2c1=O
Fa at 72 h [1]: 100%
BPR [2]: 0.72
fraction unbound (Albumin): 0.558
pEC50 (Plasmodium falciparum [3]): 7.85
intrinsic clearance (CLint) [4]: 14 µL/min/mg
solubility kinetic at 0.5 h [5]: 70 µM (≈ 26 µg/mL)
pIC50 [6]: 4.14

CCn1cc(C)c2c([C@H](O)c3ccc(C(F)(F)F)nc3)n(C)nc2c1=O
Vdss [7]: 2.76 L/kg
pEC50 (Plasmodium falciparum [3]): 7.66
intrinsic clearance (CLint) [4]: < 3 µL/min/mg
solubility kinetic at 0.5 h [5]: 160 µM (≈ 58.6 µg/mL)
pIC50 [6]: < 4.00
pIC50 [8]: 7.13

Cn1nc2c(=O)n(C3CC3)ccc2c1[C@](O)(c1cnc(C(F)(F)F)c(Cl)c1)C1CC1
Fa at 72 h [1]: 4.6%
PPB [9]: 95.8%
fraction unbound [10]: 0.578
fraction unbound (Albumin): 0.289
pEC50 (Plasmodium falciparum [3]): 8.52
t1/2 [11]: 19 h
PPB [12]: 93%
intrinsic clearance (CLint) [4]: < 3 µL/min/mg
solubility kinetic at 0.5 h [5]: 12.5 µM (≈ 5.49 µg/mL)
pIC50 [6]: < 4.52

CCn1ccc2c([C@@](O)(CC)c3ccc(C(F)(F)F)nc3)n(C)nc2c1=O
fraction unbound (Albumin): 0.821
pEC50 (Plasmodium falciparum [3]): 8.70
t1/2 [11]: 3.4 h
PPB [12]: 75.4%
intrinsic clearance (CLint) [4]: 3.6 µL/min/mg
solubility kinetic at 0.5 h [5]: 40 µM (≈ 15.2 µg/mL)

Cn1nc2c(=O)n(C3CC3)ccc2c1[C@](O)(c1ccc(C(F)(F)F)nc1)C1CC1
Fa at 72 h [1]: 40%
pEC50 (Plasmodium falciparum [3]): 8.15
intrinsic clearance (CLint) [4]: < 3 µL/min/mg
solubility kinetic at 0.5 h [5]: 20 µM (≈ 8.09 µg/mL)
pIC50 [6]: < 4.52

Cc1nn(C2CC2)c(=O)c2nn(C)c(Cc3ccc(C(F)(F)F)c(C#N)c3)c12
Fa at 72 h [1]: 15%
fraction unbound (Albumin): 0.499
t1/2 [11]: 31 h

CCn1ccc2c([C@](O)(c3cnc(C(F)(F)F)c(Cl)c3)C3CC3)n(C)nc2c1=O
PPB [9]: 70.4%
BPR [2]: 0.84
pEC50 (Plasmodium falciparum [3]): 8.70
PPB [12]: 64%
intrinsic clearance (CLint) [4]: 3.2 µL/min/mg
solubility kinetic at 0.5 h [5]: 40 µM (≈ 17.1 µg/mL)
pIC50 [6]: < 4.00

CCn1cc(C)c2c([C@H](N)c3ccc(C(F)(F)F)nc3)n(C)nc2c1=O
BPR [2]: 1.1
pEC50 (Plasmodium falciparum [3]): 7.15
logD [13]: 1.82
intrinsic clearance (CLint) [4]: < 3 µL/min/mg
Kinetic_solubility [5]: > 320 µM
pIC50 [6]: < 4.00
pIC50 [8]: 6.55

CC[C@@](O)(c1cnc(C(F)(F)F)c(Cl)c1)c1c2ccn(C3CC3)c(=O)c2nn1C
Fa at 72 h [1]: 67%
PPB [9]: 94%
Vdss [7]: 1.22 L/kg
fraction unbound [10]: 0.676
fraction unbound (Albumin): 0.511
pEC50 (Plasmodium falciparum [3]): 9.00
logD [13]: 2.4
PPB [12]: 89.4%
intrinsic clearance (CLint) [4]: < 3 µL/min/mg
solubility kinetic at 0.5 h [5]: 40 µM (≈ 17.1 µg/mL)

Cn1nc2c(=O)n(C3CC3)ncc2c1[C@](O)(c1cnc(C(F)(F)F)c(Cl)c1)C(F)(F)F
dose excreted [14]: < 1%
Fa at 72 h [1]: 94%
PPB [9]: 99.1%
pIC50 (Cytochrome P450 3A4): < 4.70
permeability [15]: Permeable
F [16]: > 100%
fraction unbound [10]: 0.342
pIC50 (Cytochrome P450 2B6): < 4.70
fraction unbound (Albumin): 0.319
pEC50 (Plasmodium falciparum [3]): 8.52
pIC50 (Cytochrome P450 2D6): < 4.70
t1/2 [11]: 23 h
PPB [12]: 97.3%
intrinsic clearance (CLint) [4]: < 3 µL/min/mg
solubility kinetic at 0.5 h [5]: 20 µM (≈ 9.36 µg/mL)
pIC50 [6]: < 4.52
pIC50 (Cytochrome P450 1A2): < 4.70
CC50 [17]: > 20 µM
CC50 [18]: > 20 µM

CC[C@@](N)(c1cnc(C(F)(F)F)c(Cl)c1)c1c2ccn(C3CC3)c(=O)c2nn1C
Fa at 72 h [1]: 82%
BPR [2]: 0.73
F [16]: 4%
fraction unbound [10]: 0.574
fraction unbound (Albumin): 0.63
pEC50 (Plasmodium falciparum [3]): 8.52
t1/2 [11]: 15 h
intrinsic clearance (CLint) [4]: < 3 µL/min/mg
Kinetic_solubility [5]: > 100 µM

CCOC(=O)c1nn(C)c(Cc2ccc(C(F)(F)F)nc2)c1C
Ratio IC50 [19]: 4
pEC50 (Plasmodium falciparum [3]): 6.72
pIC50 [6]: < 4.00
pIC50 [8]: 6.44

CCc1nc(N)nc(N)c1-c1ccc(Cl)cc1 [PYRIMETHAMINE]
log(activity) (Plasmodium falciparum [20]): 3.5

CC[C@@](N)(c1cnc(C(F)(F)F)c(Cl)c1)c1c2ncn(C3CC3)c(=O)c2nn1C
dose excreted [14]: < 1%
Fa at 72 h [1]: 64%
pIC50 (Cytochrome P450 3A4): < 4.70
F [16]: 79%
fraction unbound [10]: 0.589
pIC50 (Cytochrome P450 2B6): < 4.70
fraction unbound (Albumin): 0.703
pEC50 (Plasmodium falciparum [3]): 8.15
pIC50 (Cytochrome P450 2D6): < 4.70
logD [13]: 3.44
intrinsic clearance (CLint) [4]: < 3 µL/min/mg
solubility kinetic at 0.5 h [5]: 80 µM (≈ 34.1 µg/mL)
pIC50 [6]: < 4.52
pIC50 (Cytochrome P450 1A2): < 4.70
pIC50 [8]: 7.42
CC50 [17]: > 20 µM
CC50 [18]: > 20 µM
